Assay results from patent US20120264735A1 (priority 2009, published 2012).
pIC50: −log10 of the molar value.

Biological target: T1, c-Met kinase (recombinant c-Met) (Homo sapiens, UniProt P08581)
T1 construct: 0.27 nM recombinant c-Met
Assay: In vitro kinase assay I (homogeneous time-resolved fluorescence tyrosine kinase assay)
Assay type: biochemical
Procedure, shortened: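 Biotinylated peptide (0.5 μM) phosphorylated by 0.2 nM recombinant c-Met with 50 μM MgATP, 60 min at room temperature, pH 7.4, 5% DMSO. EDTA stop; HTRF read with Eu-anti-phosphotyrosine antibody and streptavidin-APC. IC50 from 4-parameter logistic fit.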

T1 sequence (P08581 25-1390): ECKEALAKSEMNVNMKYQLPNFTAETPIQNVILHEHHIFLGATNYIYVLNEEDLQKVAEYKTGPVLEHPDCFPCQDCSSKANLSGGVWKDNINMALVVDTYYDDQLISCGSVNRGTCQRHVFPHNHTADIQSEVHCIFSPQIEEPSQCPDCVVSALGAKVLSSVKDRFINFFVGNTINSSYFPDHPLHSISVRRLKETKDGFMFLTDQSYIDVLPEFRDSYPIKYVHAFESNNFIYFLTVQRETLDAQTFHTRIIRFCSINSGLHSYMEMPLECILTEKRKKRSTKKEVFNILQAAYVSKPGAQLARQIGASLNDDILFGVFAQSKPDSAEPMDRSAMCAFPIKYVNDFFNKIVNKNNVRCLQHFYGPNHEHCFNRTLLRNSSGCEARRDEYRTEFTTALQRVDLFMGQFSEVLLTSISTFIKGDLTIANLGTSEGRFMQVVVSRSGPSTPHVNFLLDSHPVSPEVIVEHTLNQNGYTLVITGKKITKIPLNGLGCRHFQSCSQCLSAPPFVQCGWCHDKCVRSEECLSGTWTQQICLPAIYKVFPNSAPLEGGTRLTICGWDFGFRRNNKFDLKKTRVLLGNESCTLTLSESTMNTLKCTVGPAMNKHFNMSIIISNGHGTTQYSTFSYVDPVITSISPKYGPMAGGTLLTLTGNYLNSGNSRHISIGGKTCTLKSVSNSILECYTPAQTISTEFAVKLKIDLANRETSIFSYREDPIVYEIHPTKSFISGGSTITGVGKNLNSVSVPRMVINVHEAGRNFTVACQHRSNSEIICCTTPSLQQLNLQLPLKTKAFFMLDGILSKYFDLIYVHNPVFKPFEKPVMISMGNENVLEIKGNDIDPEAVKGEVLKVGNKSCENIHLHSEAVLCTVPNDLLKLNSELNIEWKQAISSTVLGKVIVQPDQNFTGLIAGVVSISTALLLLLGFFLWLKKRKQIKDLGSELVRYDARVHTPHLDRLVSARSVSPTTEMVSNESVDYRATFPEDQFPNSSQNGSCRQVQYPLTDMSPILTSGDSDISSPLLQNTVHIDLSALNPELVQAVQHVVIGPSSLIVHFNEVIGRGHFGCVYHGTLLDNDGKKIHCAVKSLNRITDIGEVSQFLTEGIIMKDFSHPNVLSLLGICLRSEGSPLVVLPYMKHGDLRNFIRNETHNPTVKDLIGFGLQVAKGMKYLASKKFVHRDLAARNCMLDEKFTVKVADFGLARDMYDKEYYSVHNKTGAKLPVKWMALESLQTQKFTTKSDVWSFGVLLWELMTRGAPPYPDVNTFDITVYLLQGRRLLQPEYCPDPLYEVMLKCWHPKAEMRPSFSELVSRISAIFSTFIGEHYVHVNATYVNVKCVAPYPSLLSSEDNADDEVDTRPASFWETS

Row | Structure (SMILES) | pIC50
1 | Cn1cc(-n2ccc(=O)c(Cc3cccc(NC(=O)OCCCN4CCNCC4)c3)n2)cn1 [Example 626, 3-piperazin-1-ylpropyl (3-{[1-(1-methyl-1H-pyrazol-4-yl)-4-oxo-1,4-dihydropyridazin-3-yl]methyl}phenyl)carbamate] | > 7.00
2 | N#Cc1cccc(-n2ccc(=O)c(Cc3cccc(NC(=O)OCC4CNC4)c3)n2)c1 [Example 627, azetidin-3-ylmethyl (3-{[1-(3-cyanophenyl)-4-oxo-1,4-dihydropyridazin-3-yl]methyl}phenyl)carbamate] | > 7.00
3 | O=C(Nc1cccc(Cc2nn(-c3cc(F)cc(F)c3)ccc2=O)c1)OCCN1CCNCC1 [Example 628, 2-piperazin-1-ylethyl (3-{[1-(3,5-difluorophenyl)-4-oxo-1,4-dihydropyridazin-3-yl]methyl}phenyl)carbamate] | > 7.00
4 | Cn1cc(-n2ccc(=O)c(Cc3cccc(NC(=O)OCC(=O)O)c3)n2)cn1 [Example 629, ({[(3-{[1-(1-Methyl-1H-pyrazol-4-yl)-4-oxo-1,4-dihydropyridazin-3-yl]methyl}phenyl)amino]carbonyl}oxy)acetic acid] | 5.52 to 6.00
5 | Cn1cc(-n2ccc(=O)c(Cc3cccc(NC(=O)OCCO)c3)n2)cn1 [Example 630, 2-Hydroxyethyl(3-{[1-(1-methyl-1H-pyrazol-4-yl)-4-oxo-1,4-dihydropyridazin-3-yl]methyl}phenyl)carbamate] | > 7.00
6 | CC(=O)Nc1cccc(Cc2nn(-c3ccccc3)ccc2=O)c1 [Example 631, N-{3-[(4-Oxo-1-phenyl-1,4-dihydropyridazin-3-yl)methyl]phenyl}acetamide] | 5.52 to 6.00
7 | Cn1cc(-n2ccc(=O)c(Cc3cccc(NC(=O)Cc4ccccc4)c3)n2)cn1 [Example 632, N-(3-{[1-(1-methyl-1H-pyrazol-4-yl)-4-oxo-1,4-dihydropyridazin-3-yl]methyl}phenyl)-2-phenylacetamide] | 5.52 to 6.00
8 | Cn1cc(-n2ccc(=O)c(Cc3cccc(NC(=O)CCc4ccccc4)c3)n2)cn1 [Example 633, N-(3-{[1-(1-methyl-1H-pyrazol-4-yl)-4-oxo-1,4-dihydropyridazin-3-yl]methyl}phenyl)-3-phenylpropanamide] | > 7.00
9 | CCCC(=O)Nc1cccc(Cc2nn(-c3cnn(C)c3)ccc2=O)c1 [Example 634, N-(3-{[1-(1-methyl-1H-pyrazol-4-yl)-4-oxo-1,4-dihydropyridazin-3-yl]methyl}phenyl)butanamide] | 6.00 to 7.00
10 | CCC(=O)Nc1cccc(Cc2nn(-c3cnn(C)c3)ccc2=O)c1 [Example 635, N-(3-{[1-(1-methyl-1H-pyrazol-4-yl)-4-oxo-1,4-dihydropyridazin-3-yl]methyl}phenyl)propanamide] | 6.00 to 7.00
11 | Cn1cc(-n2ccc(=O)c(Cc3cccc(N4CCCC4=O)c3)n2)cn1 [Example 636, 1-(1-Methyl-1H-pyrazol-4-yl)-3-[3-(2-oxopyrrolidin-1-yl)benzyl]pyridazin-4(1H)-one] | 6.00 to 7.00
12 | Cn1cc(-n2ccc(=O)c(Cc3cccc(N4CCOC4=O)c3)n2)cn1 [Example 637, 1-(1-Methyl-1H-pyrazol-4-yl)-3-[3-(2-oxo-1,3-oxazolidin-3-yl)benzyl]pyridazin-4(1H)-one] | 5.52 to 6.00
13 | CCOC(=O)Nc1cccc(Cc2nn(-c3ccccc3)ccc2=O)c1 [Example 642, Ethyl {3-[(4-oxo-1-phenyl-1,4-dihydropyridazin-3-yl)methyl]phenyl}carbamate] | 6.00 to 7.00
14 | CCOC(=O)Nc1cccc(Cc2nn(-c3cnn(CCO)c3)ccc2=O)c1 [Example 643, Ethyl [3-({1-[1-(2-hydroxyethyl)-1H-pyrazol-4-yl]-4-oxo-1,4-dihydropyridazin-3-yl}methyl)phenyl]carbamate] | > 7.00
15 | CCCOC(=O)Nc1cccc(Cc2nn(-c3cnn(CCO)c3)ccc2=O)c1 [Example 644, propyl [3-({1-[1-(2-hydroxyethyl)-1H-pyrazol-4-yl]-4-oxo-1,4-dihydropyridazin-3-yl}methyl)phenyl] carbamate] | > 7.00
16 | CC(C)COC(=O)Nc1cccc(Cc2nn(-c3cnn(CCO)c3)ccc2=O)c1 [Example 645, 2-methylpropyl [3-({1-[1-(2-hydroxyethyl)-1H-pyrazol-4-yl]-4-oxo-1,4-dihydropyridazin-3-yl}methyl)phenyl] carbamate] | > 7.00
17 | CCOC(=O)Nc1cccc(Cc2nn(-c3cccc(O)c3)ccc2=O)c1 [Example 646, Ethyl(3-{[1-(3-hydroxyphenyl)-4-oxo-1,4-dihydropyridazin-3-yl]methyl}phenyl)carbamate] | > 7.00
18 | CCOC(=O)Nc1cccc(Cc2nn(-c3cnn(CCN)c3)ccc2=O)c1 [Example 647, Ethyl [3-({1-[1-(2-aminoethyl)-1H-pyrazol-4-yl]-4-oxo-1,4-dihydropyridazin-3-yl}methyl)phenyl]carbamate] | 6.00 to 7.00
19 | CC(C)COC(=O)Nc1cccc(Cc2nn(-c3cnn(CCN)c3)ccc2=O)c1 [Example 648, 2-methylpropyl [3-({1-[1-(2-aminoethyl)-1H-pyrazol-4-yl]-4-oxo-1,4-dihydropyridazin-3-yl}methyl)phenyl]carbamate] | > 7.00

Row | Structure (SMILES) | pIC50
20 | CCOC(=O)Nc1cccc(Cc2nn(-c3cccc(OC)c3)ccc2=O)c1 [Example 649, Ethyl(3-{[1-(3-methoxyphenyl)-4-oxo-1,4-dihydropyridazin-3-yl]methyl}phenyl)carbamate] | 6.00 to 7.00
21 | CCOC(=O)Nc1cccc(Cc2nn(-c3cccc(OCC)c3)ccc2=O)c1 [Example 650, Ethyl(3-{[1-(3-ethoxyphenyl)-4-oxo-1,4-dihydropyridazin-3-yl]methyl}phenyl)carbamate] | 6.00 to 7.00
22 | CCOc1cnc(-c2cccc(Cc3nn(-c4cnn(C5COC5)c4)ccc3=O)c2)nc1 [Example 660, 3-[3-(5-Ethoxypyrimidin-2-yl)benzyl]-1-[1-(oxetan-3-yl)-1H-pyrazol-4-yl]pyridazin-4(1H)-one] | > 7.00
23 | CCOc1cnc(-c2cccc(Cc3nn(-c4cnn(C5CN(C(=O)OC(C)(C)C)C5)c4)ccc3=O)c2)nc1 [Example 661, tert-butyl 3-(4-{3-[3-(5-ethoxypyrimidin-2-yl)benzyl]-4-oxopyridazin-1(4H)-yl}-1H-pyrazol-1-yl)acetidine-1-carboxylate] | > 7.00
24 | CCOc1cnc(-c2cccc(Cc3nn(-c4cnn(CC(=O)N(C)C)c4)ccc3=O)c2)nc1 [Example 662, 2-(4-{3-[3-(5-ethoxypyrimidin-2-yl)benzyl]-4-oxopyridazin-1(4H)-yl}-1H-pyrazol-1-yl)-N,N-dimethylacetamide] | 6.00 to 7.00
25 | CCOc1cnc(-c2cccc(Cc3nn(-c4cnn(C5CNC5)c4)ccc3=O)c2)nc1 [Example 663, 1-(1-Azetidin-3-yl-1H-pyrazol-4-yl)-3-[3-(5-ethoxypyrimidin-2-yl)benzyl]pyridazin-4(1H)-one] | > 7.00
26 | CCOc1cnc(-c2cccc(Cc3nn(-c4cnn(C5CCNCC5)c4)ccc3=O)c2)nc1 [Example 664, 3-[3-(5-ethoxypyrimidin-2-yl)benzyl]-1-(1-piperidin-4-yl-1H-pyrazol-4-yl)pyridazin-4(1H)-one] | > 7.00
27 | CCOc1cnc(-c2cccc(Cc3nn(-c4cnn(CC(C)(C)O)c4)ccc3=O)c2)nc1 [Example 666, 3-[3-(5-Ethoxypyrimidin-2-yl)benzyl]-1-[1-(2-hydroxy-2-methylpropyl)-1H-pyrazol-4-yl]pyridazin-4(1H)-one] | > 7.00
28 | CC(C)COC(=O)Nc1cccc(Cc2nn(-c3cnn(CCCN(C)C)c3)ccc2=O)c1 [Example 667, 2-Methylpropyl {3-[(1-{1-[3-(dimethylamino)propyl]-1H-pyrazol-4-yl}-4-exo-1,4-dihydropyridazin-3-yl)methyl]phenyl}carbamate] | 6.00 to 7.00
29 | CCOc1cnc(-c2cccc(Cc3nn(-c4cnn(C5CN(C)C5)c4)ccc3=O)c2)nc1 [Example 668, 3-[3-(5-Ethoxypyrimidin-2-yl)benzyl]-1-[1-(1-methylazetidin-3-yl)-1H-pyrazol-4-yl]pyridazin-4(1H)-one] | 6.00 to 7.00
30 | O=c1ccn(-c2ccccc2)nc1Cc1cccc(-c2ncccn2)c1 [Example 669, 1-Phenyl-3-[3-(pyrimidin-2-yl)benzyl]pyridazin-4(1H)-one] | 6.00 to 7.00
31 | Cn1cnc(-c2cccc(Cc3nn(-c4ccccc4)ccc3=O)c2)n1 [Example 670, 3-[3-(1-Methyl-1H-1,2,4-triazol-3-yl)benzyl]-1-phenylpyridazin-4(1H)-one] | 6.00 to 7.00
32 | O=c1ccn(-c2ccccc2)nc1Cc1cccc(-c2ccccn2)c1 [Example 671, 1-phenyl-3-(3-pyridin-2-ylbenzyl) pyridazin-4(1H)-one] | 5.52 to 6.00
33 | Cc1cnc(-c2cccc(Cc3nn(-c4cnn(C)c4)ccc3=O)c2)[nH]1 [Example 672, 3-[3-(5-Methyl-1H-imidazol-2-yl)benzyl]-1-(1-methyl-1H-pyrazol-4-yl)pyridazin-4(1H)-one] | 5.52 to 6.00
34 | Cn1cnc(-c2cccc(Cc3nn(-c4cnn(C)c4)ccc3=O)c2)c1 [Example 673, 3-[3-(1-methyl-1H-imidazol-4-yl)benzyl]-1-(1-methyl-1H-pyrazol-4-yl)pyridazin-4(1H)-one] | 6.00 to 7.00
35 | CCOC(=O)c1coc(-c2cccc(Cc3nn(-c4cnn(C)c4)ccc3=O)c2)n1 [Example 674, ethyl 2-(3-{[1-(1-methyl-1H-pyrazol-4-yl)-4-oxo-1,4-dihydropyridazin-3-yl]methyl}phenyl)-1,3-oxazole-4-carboxylate] | 5.52 to 6.00
36 | CCOC(=O)c1cnc(-c2cccc(Cc3nn(-c4cnn(C)c4)ccc3=O)c2)o1 [Example 675, ethyl 2-(3-{[1-(1-methyl-1H-pyrazol-4-yl)-4-oxo-1,4-dihydropyridazin-3-yl]methyl}phenyl)-1,3-oxazole-5-carboxylate] | 6.00 to 7.00
37 | Cn1cc(-n2ccc(=O)c(Cc3cccc(-c4ncc(CO)s4)c3)n2)cn1 [Example 676, 3-{3-[5-(hydroxymethyl)-1,3-thiazol-2-yl]benzyl}-1-(1-methyl-1H-pyrazol-4-yl)pyridazin-4(1H)-one] | 6.00 to 7.00
38 | CCOc1ccc(-c2cccc(Cc3nn(-c4cnn(C)c4)ccc3=O)c2)nc1 [Example 677] | > 7.00
